Assay: ICH stability study of psilocybin batches (appearance, water content, purity, assay)
Settings: for Chemical Purity By HPLC / Total Impurities / Water content by loss on drying: listed as GM764B

## CN(C)CCc1c[nH]c2cccc(OP(=O)(O)O)c12 [Batch GM764B]
T = 0
  Appearance: An off white solid.
  Assay by 1H-NMR: 97% ^w/w % w/w
  Impurities by HPLC: RRT 0.86: 0.05%
  Impurities by HPLC: RRT 1.46: 0.05%
  Impurities by HPLC: RRT 1.59 (Psilocin): 0.37%
  Chemical Purity By HPLC: 99.24%
  Total Impurities: 0.76%
  Water content by loss on drying: 0.86% ^w/w % w/w
T = 1 month, 2-8° C.
  Appearance: An off white solid.
  Assay by 1H-NMR: 99% ^w/w % w/w
  Impurities by HPLC: RRT 0.86: 0.05%
  Impurities by HPLC: RRT 1.46: 0.09%
  Impurities by HPLC: RRT 1.59 (Psilocin): 0.35%
  Chemical Purity By HPLC: 99.24%
  Total Impurities: 0.76%
  Water content by loss on drying: 0.35% ^w/w % w/w
T = 1 month, 25° C./60% RH
  Appearance: An off white solid.
  Assay by 1H-NMR: 98% ^w/w % w/w
  Impurities by HPLC: RRT 0.86: 0.05%
  Impurities by HPLC: RRT 1.46: 0.10%
  Impurities by HPLC: RRT 1.59 (Psilocin): 0.34%
  Chemical Purity By HPLC: 99.22%
  Total Impurities: 0.78%
  Water content by loss on drying: 0.20% ^w/w % w/w
T = 1 month, 40° C./75% RH
  Appearance: An off white solid.
  Assay by 1H-NMR: 96% ^w/w % w/w
  Impurities by HPLC: RRT 0.86: 0.05%
  Impurities by HPLC: RRT 1.46: 0.10%
  Impurities by HPLC: RRT 1.59 (Psilocin): 0.34%
  Chemical Purity By HPLC: 99.23%
  Total Impurities: 0.77%
  Water content by loss on drying: 0.14% ^w/w % w/w
T = 3 months, 2-8° C.
  Appearance: An off white solid.
  Assay by 1H-NMR: 97% ^w/w % w/w
  Impurities by HPLC: RRT 0.86: < 0.05%
  Impurities by HPLC: RRT 1.46: 0.10%
  Impurities by HPLC: RRT 1.59 (Psilocin): 0.37%
  Chemical Purity By HPLC: 99.31%
  Total Impurities: 0.69%
  Water content by loss on drying: 0.26% ^w/w % w/w
T = 3 months, 25° C./60% RH
  Appearance: An off white solid.
  Assay by 1H-NMR: 99% ^w/w % w/w
  Impurities by HPLC: RRT 0.86: < 0.05%
  Impurities by HPLC: RRT 1.46: 0.09%
  Impurities by HPLC: RRT 1.59 (Psilocin): 0.36%
  Chemical Purity By HPLC: 99.27%
  Total Impurities: 0.73%
  Water content by loss on drying: 0.08% ^w/w % w/w
T = 3 months, 40° C./75% RH
  Appearance: An off white solid.
  Assay by 1H-NMR: 97% ^w/w % w/w
  Impurities by HPLC: RRT 0.86: < 0.05%
  Impurities by HPLC: RRT 1.46: 0.10%
  Impurities by HPLC: RRT 1.59 (Psilocin): 0.37%
  Chemical Purity By HPLC: 99.26%
  Total Impurities: 0.74%
  Water content by loss on drying: 0.14% ^w/w % w/w
